One experiment concerns Botrytis cinerea. The experiment is described as follows: Direct protectant activity against broad bean grey mould (BCB). The experiment is classed as in vivo. The settings on record: direct protectant foliar spray, 600 ppm, 4 days. A digest of the protocol:
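Protectant foliar test: lesion coverage assessed 4 days after inoculation and rated relative to untreated or diluent-sprayed plants. Compound applied at 600 ppm to cv The Sutton leaves 24 h before 10^6 conidia/ml suspension; incubation at 22 °C in high humidity.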

A further experiment deals with Leptosphaeria nodorum. The experiment is described as follows: Activity against wheat leafspot (LN). It counts as in vivo. The settings on record: direct therapeutic foliar spray, 600 ppm, 6-8 days. The essentials:
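Therapeutic foliar spray: compound at 600 ppm applied to single-leaf wheat (cv Norman) 24 h after inoculation with 1.5×10^6 conidia/ml. Disease control scored after 6-8 days at 22° C and 70% humidity as lesions per leaf versus untreated or diluent-sprayed controls.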

In the next experiment the test system is Alternaria solani. Put plainly: Activity against tomato early blight (AS). The experiment is classed as in vivo. The settings on record: Table VI; tomato seedlings, contact prophylactic foliar spray, 4 days. The essentials: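 Plants were challenged with A. solani conidia (10^4 spores/ml) 24 h after a protective foliar spray of compound in 50:50 acetone/water plus 0.04% Tween 20. Held humid at 21° C for 4 days, then percent leaf area with lesions was scored as a rating relative to controls.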

The test system of the next experiment is Pyricularia oryzae. The experiment is classed as in vivo. The settings on record: rice seedlings, direct therapeutic foliar spray, 600 ppm, 4-5 days.
Experiment [1] deals with Pseudocercosporella herpotrichoides. The experiment is described as follows: Activity against wheat eyespot in-vitro (PHI). It counts as cell-based. The settings on record: 10 ppm, 10 days, 20° C., mycelial growth. The essentials:
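Mycelial growth was scored after 10 days at 20 °C against untreated or diluent controls. The broth was half-strength potato dextrose, holding 10 ppm test compound (from acetone) and 5×10^4 fragments/ml of the eyespot fungus.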

A further experiment has as its system Rhizoctonia solani. Put plainly: Activity against Rhizoctonia in-vitro (RSI). It counts as cell-based. The settings on record: 10 ppm, 10 days, 20° C., mycelial growth. A digest of the protocol: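 Compound at a final 10 ppm (acetone vehicle) in half-strength PDB, inoculated with 5×10^4 fragments/ml of shaken-culture R. solani mycelium. After incubation at 20° C for 10 days, growth scored as a rating versus untreated or diluent-treated controls.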

In another experiment the test system is Venturia inaequalis. Put plainly: Activity against apple scab in-vitro (VII). The experiment is classed as cell-based. The settings on record: 10 ppm, 10 days, 20° C., mycelial growth. A digest of the protocol: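 V. inaequalis propagules (5×10^4/ml, malt agar-grown) were exposed in half-strength PDB to 10 ppm final test compound delivered in acetone. Growth was scored after incubation for 10 days at 20° C, as a rating relative to untreated or diluent-sprayed controls.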

For experiment [2], the system named is Erysiphe graminis f.sp. hordei. Put plainly: Direct protectant activity against barley powdery mildew (EGP). It counts as in vivo. The settings on record: direct protectant foliar spray, 8 days. A digest of the protocol:
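Rating reflects percentage of leaf area with sporulation compared with untreated or diluent-sprayed controls. Protectant spray was applied to single-leaf barley (cv Golden Promise) 24 h before conidia inoculation. Plants were kept at 18 °C and 40% RH throughout, with 8 days of disease development.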

The next experiment deals with Plasmopara viticola. The experiment is described as follows: Antisporulant activity against vine downy mildew (PVA). The experiment is classed as in vivo. The settings on record: vine leaves, antisporulant foliar spray, 600 ppm, 750 l/ha. The essentials:
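Cabernet Sauvignon vines (~8 cm) inoculated on lower leaf surfaces with 5×10^4 zoosporangia/ml, held 24 h at 21° C high humidity then 24 h glasshouse. Infected leaves sprayed underside with 600 ppm compound in 1:1 water/acetone, 0.04% Tween 20, 750 l/ha; 96 h glasshouse, 24 h humidity. Sporulating leaf area rated versus control.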

Another experiment has as its system Phytophthora infestans. It counts as in vivo. The settings on record: tomato, direct protectant foliar spray.
The subject of experiment [3] is Erysiphe graminis f.sp. hordei. Put plainly: Activity against barley powdery mildew, direct therapeutic (EGT). It counts as in vivo. The settings on record: direct therapeutic foliar spray, 600 ppm, up to 7 days. The essentials: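 A curative spray at 600 ppm was applied to single-leaf Golden Promise barley inoculated with powdery mildew conidia the previous day. After up to 7 days at 18 °C and 40% humidity, disease control was rated from percent leaf area sporulating relative to untreated or diluent-sprayed controls.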

The results in this text go back to patent US5591741A, “Fungicidal spiroheterocyclic derivatives” (American Cyanamid Company, priority 1993, dated 1997).

The structures appear in SMILES notation.

In the case of `CCCCCCNC1CC2(CCC(C(C)(C)C)CC2)OC1C` (stereo not shown) [Compound 84], the “disease control rating BCB” value in the experiment on Botrytis cinerea is reported as 0 (less than 50% disease control). Also, in the experiment with Leptosphaeria nodorum, the “disease control rating LN” value is on record as 0 (less than 50% disease control). Further, the “disease control rating AS” value in the experiment with Alternaria solani is 0 (less than 50% disease control). Also, the “disease control rating PO” value with Pyricularia oryzae is 0 (less than 50% disease control). The “disease control rating PHI” value in [1] is on record as 0 (less than 50% disease control). In the experiment on Rhizoctonia solani, the “disease control rating RSI” value is listed as 1 (about 50-80% disease control). In addition, the “disease control rating VII” value with Venturia inaequalis is reported as 1 (about 50-80% disease control). Further, the “disease control rating EGP” value in [2] is reported as 2 (greater than 80% disease control). Also, the “disease control rating PVA” value in the experiment on Plasmopara viticola is reported as 0 (less than 50% disease control). Moreover, in the experiment on Phytophthora infestans, the “disease control rating PIP” value is on record as 2 (greater than 80% disease control). Further, in experiment [3], the “disease control rating EGT” value was 2 (greater than 80% disease control).

Consider `CC(C)(C)C1CCC2(CC1)CC(NC1CC3CCC1C3)CO2` (stereo not shown) [Compound 85], for which the “disease control rating BCB” value in the experiment with Botrytis cinerea is recorded as 2 (greater than 80% disease control). In addition, the “disease control rating LN” value in the experiment on Leptosphaeria nodorum is on record as 0 (less than 50% disease control). The “disease control rating AS” value with Alternaria solani is listed as 0 (less than 50% disease control). For the same compound, in the experiment with Pyricularia oryzae, the “disease control rating PO” value is given as 0 (less than 50% disease control). Moreover, in experiment [1], the “disease control rating PHI” value is reported as 0 (less than 50% disease control). Also, the “disease control rating RSI” value in the experiment with Rhizoctonia solani was 0 (less than 50% disease control). Further, the “disease control rating VII” value with Venturia inaequalis was 1 (about 50-80% disease control). In [2], the “disease control rating EGP” value is on record as 2 (greater than 80% disease control). For the same compound, the “disease control rating PVA” value in the experiment on Plasmopara viticola is given as 0 (less than 50% disease control). In addition, the “disease control rating PIP” value with Phytophthora infestans is given as 2 (greater than 80% disease control). Also, in experiment [3], the “disease control rating EGT” value was 2 (greater than 80% disease control).

Regarding `CC(C)(C)C1CCC2(CC1)CC(NC1C3CC4CC(C3)CC1C4)CO2` (stereo not shown) [Compound 86], the “disease control rating BCB” value in the experiment with Botrytis cinerea is 0 (less than 50% disease control). Further, the “disease control rating LN” value in the experiment on Leptosphaeria nodorum is given as 0 (less than 50% disease control). The “disease control rating AS” value in the experiment on Alternaria solani is reported as 2 (greater than 80% disease control). Moreover, the “disease control rating PO” value with Pyricularia oryzae is given as 0 (less than 50% disease control). For the same compound, the “disease control rating PHI” value in experiment [1] is on record as 0 (less than 50% disease control). In the experiment on Rhizoctonia solani, the “disease control rating RSI” value is 0 (less than 50% disease control). Moreover, in the experiment with Venturia inaequalis, the “disease control rating VII” value was 1 (about 50-80% disease control). The “disease control rating EGP” value in [2] is listed as 2 (greater than 80% disease control). Besides, the “disease control rating PVA” value in the experiment with Plasmopara viticola is reported as 0 (less than 50% disease control). The “disease control rating PIP” value in the experiment with Phytophthora infestans is recorded as 2 (greater than 80% disease control). In addition, the “disease control rating EGT” value in experiment [3] was 2 (greater than 80% disease control).

On to `CC1CCCCC1NC1COC2(CCC(C(C)(C)C)CC2)C1` (stereo not shown) [Compound 87], for which, in the experiment with Botrytis cinerea, the “disease control rating BCB” value was 0 (less than 50% disease control). Besides, the “disease control rating LN” value in the experiment with Leptosphaeria nodorum is 0 (less than 50% disease control). Further, in the experiment with Alternaria solani, the “disease control rating AS” value is 0 (less than 50% disease control). Further, the “disease control rating PO” value in the experiment on Pyricularia oryzae is 0 (less than 50% disease control). Besides, in experiment [1], the “disease control rating PHI” value is given as 0 (less than 50% disease control). In addition, in the experiment with Rhizoctonia solani, the “disease control rating RSI” value is 1 (about 50-80% disease control). Also, the “disease control rating VII” value in the experiment on Venturia inaequalis is 1 (about 50-80% disease control). Further, in experiment [2], the “disease control rating EGP” value is reported as 2 (greater than 80% disease control). Moreover, the “disease control rating PVA” value in the experiment on Plasmopara viticola was 0 (less than 50% disease control). In addition, the “disease control rating PIP” value in the experiment on Phytophthora infestans is given as 2 (greater than 80% disease control). Further, the “disease control rating EGT” value in experiment [3] is on record as 2 (greater than 80% disease control).

For the compound `CC1CCCC(NC2COC3(CCC(C(C)(C)C)CC3)C2)C1` (stereo not shown) [Compound 88], in the experiment with Botrytis cinerea, the “disease control rating BCB” value was 2 (greater than 80% disease control). The “disease control rating LN” value with Leptosphaeria nodorum is 0 (less than 50% disease control). In addition, in the experiment on Alternaria solani, the “disease control rating AS” value is 0 (less than 50% disease control). For the same compound, in the experiment on Pyricularia oryzae, the “disease control rating PO” value was 0 (less than 50% disease control). Moreover, in experiment [1], the “disease control rating PHI” value is listed as 0 (less than 50% disease control). In the experiment with Rhizoctonia solani, the “disease control rating RSI” value was 1 (about 50-80% disease control). The “disease control rating VII” value in the experiment with Venturia inaequalis is on record as 1 (about 50-80% disease control). Also, the “disease control rating EGP” value in experiment [2] is given as 2 (greater than 80% disease control). The “disease control rating PVA” value in the experiment with Plasmopara viticola is listed as 0 (less than 50% disease control). Further, the “disease control rating PIP” value with Phytophthora infestans is recorded as 2 (greater than 80% disease control). Further, the “disease control rating EGT” value in experiment [3] was 2 (greater than 80% disease control).

Turning to `CC1CCC(NC2COC3(CCC(C(C)(C)C)CC3)C2)CC1` (stereo not shown) [Compound 89], the “disease control rating BCB” value with Botrytis cinerea was 0 (less than 50% disease control). The “disease control rating LN” value in the experiment on Leptosphaeria nodorum is 1 (about 50-80% disease control). Further, in the experiment with Alternaria solani, the “disease control rating AS” value is 0 (less than 50% disease control). For the same compound, the “disease control rating PO” value in the experiment with Pyricularia oryzae is 0 (less than 50% disease control). The “disease control rating PHI” value in experiment [1] was 0 (less than 50% disease control). Also, the “disease control rating RSI” value with Rhizoctonia solani is 1 (about 50-80% disease control). For the same compound, in the experiment on Venturia inaequalis, the “disease control rating VII” value is 0 (less than 50% disease control). Moreover, the “disease control rating EGP” value in [2] is 2 (greater than 80% disease control). In addition, the “disease control rating PVA” value in the experiment with Plasmopara viticola is 1 (about 50-80% disease control). In the experiment with Phytophthora infestans, the “disease control rating PIP” value was 0 (less than 50% disease control). The “disease control rating EGT” value in experiment [3] is 2 (greater than 80% disease control).

Turning to `CC(C)(C)C1CCC2(CC1)CC(NC1CCC(O)CC1)CO2` (stereo not shown) [Compound 90], the “disease control rating BCB” value in the experiment with Botrytis cinerea is recorded as 2 (greater than 80% disease control). Besides, in the experiment with Leptosphaeria nodorum, the “disease control rating LN” value is 0 (less than 50% disease control). The “disease control rating AS” value with Alternaria solani is listed as 0 (less than 50% disease control). Also, in the experiment on Pyricularia oryzae, the “disease control rating PO” value is recorded as 0 (less than 50% disease control). In addition, the “disease control rating PHI” value in experiment [1] is 0 (less than 50% disease control). Also, in the experiment with Rhizoctonia solani, the “disease control rating RSI” value is 0 (less than 50% disease control). For the same compound, in the experiment on Venturia inaequalis, the “disease control rating VII” value was 0 (less than 50% disease control). Further, the “disease control rating EGP” value in experiment [2] is 2 (greater than 80% disease control). Moreover, the “disease control rating PVA” value with Plasmopara viticola is 0 (less than 50% disease control). Further, in the experiment with Phytophthora infestans, the “disease control rating PIP” value is 2 (greater than 80% disease control). Moreover, the “disease control rating EGT” value in experiment [3] is 2 (greater than 80% disease control).

For the compound `CN(CC1CCCCC1)C1COC2(CCC(C(C)(C)C)CC2)C1` (stereo not shown) [Compound 91], the “disease control rating BCB” value in the experiment on Botrytis cinerea is 1 (about 50-80% disease control). Moreover, the “disease control rating LN” value in the experiment with Leptosphaeria nodorum is reported as 1 (about 50-80% disease control). Further, the “disease control rating AS” value with Alternaria solani was 0 (less than 50% disease control). The “disease control rating PO” value in the experiment on Pyricularia oryzae is reported as 0 (less than 50% disease control). The “disease control rating PHI” value in experiment [1] is recorded as 2 (greater than 80% disease control). The “disease control rating RSI” value with Rhizoctonia solani is recorded as 0 (less than 50% disease control). Further, the “disease control rating VII” value in the experiment with Venturia inaequalis is listed as 0 (less than 50% disease control). The “disease control rating EGP” value in experiment [2] is recorded as 2 (greater than 80% disease control). In the experiment with Plasmopara viticola, the “disease control rating PVA” value is 0 (less than 50% disease control). In addition, in the experiment on Phytophthora infestans, the “disease control rating PIP” value is listed as 2 (greater than 80% disease control). In addition, the “disease control rating EGT” value in experiment [3] is 2 (greater than 80% disease control).
